Measured values as given in ChEMBL document CHEMBL3286119, “Biarylmethoxy Nicotinamides As Novel and Specific Inhibitors of Mycobacterium tuberculosis” (ACS Med Chem Lett, 2014).
Activity calls are given as the source filed them.

Tests used:
Assay type in all cases: functional, organism-based
[1] = test system: Mycobacterium tuberculosis; assay: Antimicrobial activity against ethionamide-resistant Mycobacterium tuberculosis 1700 after 2 to 3 weeks
[2] = test system: Mycobacterium tuberculosis; assay: Antimicrobial activity against streptomycin-resistant Mycobacterium tuberculosis ATCC 35820 after 2 to 3 weeks
[3] = test system: Mycobacterium tuberculosis; assay: Antimicrobial activity against rifampicin-resistant Mycobacterium tuberculosis 19000 after 2 to 3 weeks
[4] = test system: Mycobacterium tuberculosis; assay: Antimicrobial activity against isoniazid-resistant Mycobacterium tuberculosis ATCC 35822 after 2 to 3 weeks

Measured: Activity

CC(C)OCCOc1ccc(-c2cnc(COc3ncccc3C(N)=O)nc2)c(Cl)c1
active: [1] | [2] | [3] | [4]

NC(=O)c1cccnc1OCc1ncc(-c2ccc(OCCCF)cc2Cl)cn1
active: [1] | [2] | [3] | [4]

COCCOc1ccc(-c2ccc(COc3ncccc3C(N)=O)nc2)c(C)c1
active: [1] | [2] | [3] | [4]
